Test results taken from patent US4732977A, “Carbapenem antibiotics” (priority 1986, dated 1988).
In brackets after ≈: the same amount, converted by molar mass. Structures can show the parent of a compound that is named as a salt. Where two headings read alike, the source gives them in different places.

What was measured:
[1] = tested on: S. aureus A15097 (Meth-res.); assay: M.I.C., tube dilution; format: cell-based; details: Staphylococcus aureus, overnight incubation at 37° C.
[2] = tested on: S. faecalis A20688; assay: M.I.C., tube dilution; format: cell-based; details: Enterococcus faecalis, A20688, overnight incubation at 37° C., Nutrient Broth; read-out: MIC
[3] = tested on: P. vulgaris A21559; assay: M.I.C., tube dilution; format: cell-based; details: Proteus vulgaris, A21559, overnight incubation at 37° C., Nutrient Broth; read-out: MIC
[4] = tested on: P. aeruginosa A21213; assay: M.I.C., tube dilution; format: cell-based; details: Pseudomonas aeruginosa, A21213, overnight incubation at 37° C., Nutrient Broth; read-out: MIC
[5] = tested on: H. influenzae A-9833; assay: M.I.C., tube dilution; format: cell-based; details: Haemophilus influenzae, A9833; overnight incubation at 37° C., Nutrient Broth
[6] = tested on: H. influenzae A21518; assay: M.I.C., tube dilution; format: cell-based; details: Haemophilus influenzae, overnight incubation at 37° C., Nutrient Broth
[7] = tested on: B. fragilis A22696; assay: M.I.C., tube dilution; format: cell-based; details: Bacteroides fragilis, overnight incubation at 37° C., Nutrient Broth
[8] = tested on: P. mirabilis A-9900; assay: Protective effect in intramuscular treatment of infected mice; format: in vivo; details: Proteus mirabilis
Protocol: (§1) The PD50 (dose in mg/kg required to give protection to 50% of the infected mice) is indicated.
with drugs 0 and 2 hours postinfection.
(§2) The PD50 (dose in mg/kg) required to give protection to 50% of the infected mice is indicated.

[9] = tested on: P. aeruginosa A-9843a; assay: animal or person; format: in vivo, mice; details: Pseudomonas aeruginosa, A9843A, im
Protocol: as §1
with drugs 0 and 2 hours postinfection.
as §2

[10] = tested on: S. aureus A-9606; assay: Protective effect in intramuscular treatment of infected mice; format: in vivo; details: Staphylococcus aureus, read-out: PD50/treatment
Protocol: as §1
with drugs 0 and 2 hours postinfection.
as §2

[11] = tested on: E. coli A-15119; assay: as above; format: in vivo; details: Escherichia coli
Protocol: as §1
with drugs 0 and 2 hours postinfection.
as §2

[12] = tested on: K. pneumoniae A9664; assay: as above; format: in vivo; details: Klebsiella pneumoniae, im, K. pneumoniae A9664, read-out: PD50/treatment
From the text: as §2

[13] = tested on: P. aeruginosa A24081; assay: as above; format: in vivo; details: Pseudomonas aeruginosa, read-out: PD50/treatment
From the text: as §2

[14] = Blood levels in mice after intramuscular administration;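 also: compounds dissolved in 0.1 M phosphate buffer at pH 7, data from one experiment using four mice for each compound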
From the text: Compounds were solubilized in 0.1 M phosphate buffer pH 7.
a single test; 4 mice used per compound.
Compounds were solubilized in 0.1 M phosphate buffer, pH 7.
on a single test; 4 mice per compound.

[15] = tested on: S. aureus A-9537; assay: M.I.C., tube dilution; format: cell-based; details: Staphylococcus aureus
[16] = tested on: E. coli A15119; assay: M.I.C., tube dilution; format: cell-based; details: Escherichia coli, A15119, 10^-4 dil.
[17] = tested on: E. coli A20341-1; assay: M.I.C., tube dilution; format: cell-based; details: Escherichia coli, A203411; 10^-4; read-out: MIC
[18] = tested on: P. morganii A15153; assay: M.I.C., tube dilution; format: cell-based; details: Morganella morganii, A15153
[19] = tested on: P. aeruginosa A-9843A; assay: M.I.C., tube dilution; format: cell-based; details: Pseudomonas aeruginosa, A9843A, overnight incubation at 37° C., Nutrient Broth
[20] = tested on: B. fragilis A22862; assay: M.I.C., tube dilution; format: cell-based; details: Bacteroides fragilis, overnight incubation at 37° C., Nutrient Broth
[21] = tested on: B. fragilis A22053; assay: M.I.C., tube dilution; format: cell-based; details: Bacteroides fragilis, overnight incubation at 37° C., Nutrient Broth
[22] = tested on: B. fragilis A22863; assay: M.I.C., tube dilution; format: cell-based; details: Bacteroides fragilis, overnight incubation at 37° C., Nutrient Broth
[23] = tested on: P. aeruginosa A-20481; assay: Protective effect in intramuscular treatment of infected mice; format: in vivo; details: Pseudomonas aeruginosa, A20481, im, i.m. 0 and 2 h postinfection, challenge 5.4 × 10^4 organisms, * = historical data, read-out: PD50/Treatment
[24] = tested on: P. aeruginosa A-20599; assay: as above; format: in vivo; details: Pseudomonas aeruginosa, A20599, im, i.m. 0 and 2 h postinfection, challenge 1.4 × 10^5 organisms, * = historical data, read-out: PD50/Treatment
[25] = tested on: S. faecalis A-20688; assay: as above; format: in vivo; details: Enterococcus faecalis, A20688, im, i.m. 0 and 2 h postinfection, challenge 2.3 × 10^8 organisms, * = historical data, read-out: PD50/Treatment
[26] = Urinary recovery after intramuscular administration to mice; format: in vivo; details: mouse, urine, im, 20 mg/kg, 20 mg/kg i.m.
From the text: | a single test; 4 mice per compound.

[27] = in vivo; details: mouse
[28] = Toxicity after intracranial administration to mice; details: mouse, in vivo
[29] = tested on: S. pyogenes A-9604; assay: M.I.C., tube dilution; format: cell-based; details: Streptococcus pyogenes, A9604; overnight incubation at 37° C., Nutrient Broth; read-out: MIC
[30] = tested on: K. pneumoniae A-9664; assay: M.I.C., tube dilution; format: cell-based; details: Klebsiella pneumoniae, A9664, overnight incubation at 37° C., Nutrient Broth; read-out: MIC
[31] = tested on: K. pneumoniae A20468; assay: M.I.C., tube dilution; format: cell-based; details: Klebsiella pneumoniae, A20468, overnight incubation at 37° C., Nutrient Broth; read-out: MIC
[32] = tested on: P. mirabilis A-9900; assay: M.I.C., tube dilution; format: cell-based; details: Proteus mirabilis, A9900, overnight incubation at 37° C., Nutrient Broth; read-out: MIC
[33] = tested on: P. rettgeri A22424; assay: M.I.C., tube dilution; format: cell-based; details: Providencia rettgeri, A22424; overnight incubation at 37° C., Nutrient Broth; read-out: MIC
[34] = tested on: S. marcescens A20019; assay: M.I.C., tube dilution; format: cell-based; details: Serratia marcescens, A20019; overnight incubation at 37° C., Nutrient Broth; read-out: MIC
[35] = tested on: E. cloacae A-9659; assay: M.I.C., tube dilution; format: cell-based; details: Enterobacter cloacae, A9659; overnight incubation at 37° C., Nutrient Broth; read-out: MIC
[36] = tested on: E. cloacae A-9656; assay: M.I.C., tube dilution; format: cell-based; details: Enterobacter cloacae, A9656, overnight incubation at 37° C., Nutrient Broth; read-out: MIC
[37] = im, mice, i.m., P. mirabilis A9900, read-out: PD50/treatment
[38] = in Mus musculus, read-out: PD50/treatment
[39] = im, mice, i.m., S. aureus A9606
[40] = im, mice, i.m., E. coli A15119, read-out: PD50/treatment

C[C@@H](O)[C@H]1C(=O)N2C(C(=O)[O-])=C(SCc3ccc[n+](C)c3)C[C@H]12 [Example 3, 3-(N-Methylpyridine-3-yl-methanethio)-6α-[1-(R)-hydroxyethyl]-7-oxo-1-azabicyclo(3.2.0)hept-2-ene-2-carboxylate]
MIC [1]: 4 µg/mL (≈ 12 µM) | MIC [2]: 0.5 µg/mL (≈ 1.5 µM) | MIC [3]: 0.016 µg/mL (≈ 0.0478 µM) | MIC [4]: 0.5 µg/mL (≈ 1.5 µM) | MIC [5]: 2 µg/mL (≈ 5.98 µM) | MIC [6]: 2 µg/mL (≈ 5.98 µM) | MIC [7]: 0.5 µg/mL (≈ 1.5 µM) | ED50 [8, 37]: 2 mg/kg | ED50 [9, 38]: 0.5 mg/kg | ED50 [10, 39]: 0.07 mg/kg | ED50 [11, 40]: 1 mg/kg | ED50 [12]: 3 mg/kg | ED50 ([13]; im, mice, i.m., P. aeruginosa A24081): 0.8 mg/kg | AUC ([14]; mouse, blood, im, 20 mg/kg): 6900 ng·h/mL | Cmax ([14]; mouse, blood, im, 20 mg/kg): 14500 ng/mL | half-life ([14]; mouse, blood, im, 20 mg/kg): 10 min

C[C@@H](O)[C@H]1C(=O)N2C(C(=O)[O-])=C(SCc3cc[n+](C)cc3)C[C@H]12 [Example 1, 1-Methyl-4-[2-carboxy-6α-[1(R)-hydroxyethyl]-7-oxo-1-azabicyclo[3.2.0]hept-2-en-3-thiomethyl]pyridinium hydroxide inner salt]
MIC ([15]; A9537, overnight incubation at 37° C., Nutrient Broth): 0.13 µg/mL | MIC ([15]; A9537, +50% serum): 0.03 µg/mL | MIC [2]: 0.5 µg/mL | MIC [16]: 0.06 µg/mL | MIC [17]: 0.03 µg/mL | MIC [3]: 0.13 µg/mL | MIC [18]: 0.13 µg/mL | MIC [19]: 4 µg/mL | MIC [4]: 1 µg/mL | MIC [5]: 16 µg/mL | MIC [6]: 16 µg/mL | MIC [20]: 0.03 µg/mL | MIC [21]: 0.03 µg/mL | MIC [22]: 0.03 µg/mL | ED50 ([8]; A9900, im, read-out: PD50/Treatment): 3.3 mg/kg | ED50 ([9]; mice, i.m. 0 and 2 h postinfection, challenge 5.5 × 10^4 organisms, * = historical data, read-out: PD50/Treatment): 0.3 mg/kg | ED50 [23]: 0.63 mg/kg | ED50 [24]: 0.7 mg/kg | ED50 ([10]; A9606, im): 0.09 mg/kg | ED50 [25]: 3.3 mg/kg | ED50 ([11]; A15119, im, 3.5 h, read-out: PD50/Treatment): 0.6 mg/kg | dose excreted at 3 h ([26]; 0-3 hours): 26.1% | dose excreted at 24 h ([26]; 0-24 hours): 26.7 ± 6.7% | dose excreted at 6 h ([26]; 3-6 hours): 0.5% | dose excreted at 24 h ([26]; 6-24 hours): 0.1% | NOAEL [27]: 5 mg/kg | LD50 [28]: 14 mg/kg | AUC ([14]; mice, 20 mg/kg i.m. (table 9)): 6300 ng·h/mL | T1/2 ([14]; mice, 20 mg/kg i.m. (table 9)): 10 min | AUC ([14]; mouse, blood, im, 20 mg/kg): 6300 ng·h/mL | Cmax ([14]; mouse, blood, im, 20 mg/kg): 14000 ng/mL | half-life ([14]; mouse, in vivo, im, 20 mg/kg): 10 min

C[C@@H](O)[C@H]1C(=O)N2C(C(=O)[O-])=C(SCc3cccc[n+]3C)C[C@H]12 [Example 4, 3-(N-Methylpyridine-2-yl-methanethio)-6α-[1-(R)-hydroxyethyl]-7-oxo-1-azabicyclo(3.2.0)hept-2-ene-2-carboxylate]
MIC [29]: 1 ng/mL (≈ 0.00299 µM) | MIC ([15]; A9537, +50% serum, read-out: MIC): 0.03 µg/mL (≈ 0.0897 µM) | MIC [1]: 4 µg/mL (≈ 12 µM) | MIC [2]: 0.5 µg/mL (≈ 1.5 µM) | MIC [30]: 0.03 µg/mL (≈ 0.0897 µM) | MIC [31]: 0.03 µg/mL (≈ 0.0897 µM) | MIC [32]: 0.06 µg/mL (≈ 0.179 µM) | MIC [3]: 0.016 µg/mL (≈ 0.0478 µM) | MIC [33]: 0.13 µg/mL (≈ 0.389 µM) | MIC [34]: 0.03 µg/mL (≈ 0.0897 µM) | MIC [35]: 0.03 µg/mL (≈ 0.0897 µM) | MIC [36]: 0.06 µg/mL (≈ 0.179 µM) | MIC [4]: 0.13 µg/mL (≈ 0.389 µM) | MIC [5]: 2 µg/mL (≈ 5.98 µM) | MIC [6]: 2 µg/mL (≈ 5.98 µM) | MIC [20]: 0.06 µg/mL (≈ 0.179 µM) | MIC [7]: 0.5 µg/mL (≈ 1.5 µM) | ED50 [8, 37]: 4 mg/kg | ED50 [9, 38]: 0.2 mg/kg | ED50 [10, 39]: 0.1 mg/kg | ED50 [11, 40]: 0.4 mg/kg | ED50 [12]: 3 mg/kg | ED50 ([13]; A24081, im): 0.2 mg/kg | AUC ([14]; mouse, blood, im, 20 mg/kg): 7700 ng·h/mL | Cmax ([14]; mouse, blood, im, 20 mg/kg): 15500 ng/mL | half-life ([14]; mouse, blood, im, 20 mg/kg): 11 min
